Assay results as given in ChEMBL document CHEMBL1201862, “PubChem BioAssay data set” (2004).
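Growth conditions: 96-well plates. Treatment: test compound, 48 hours, 5 concentrations. Analysis: linear interpolation between bracketing concentrations; unreached endpoints set to highest concentration. The concentration for 50% growth inhibition is given as GI50.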 Activity calls are given as the source filed them. No stated cut-off is given here; in the data, active = GI50 up to about 1.1 µM and inactive = higher.

Experiments:
Experiment in all cases: NCI tumour cell line growth inhibition, 48 h
[1] = system: CAKI-1
[2] = system: CCRF-CEM
[3] = system: EKVX
[4] = system: HCT-15
[5] = system: HL-60
[6] = system: HT-29
[7] = system: K562
[8] = system: LOX IMVI
[9] = system: NCI-H23
[10] = system: OVCAR-3
[11] = system: OVCAR-5
[12] = system: SF-268
[13] = system: SF-295
[14] = system: SF-539
[15] = system: SK-MEL-28
[16] = system: SK-MEL-5
[17] = system: SN12C
[18] = system: SW-620
[19] = system: U-251
[20] = system: UO-31

Compound | GI50 [1] | GI50 [2] | GI50 [3] | GI50 [4] | GI50 [5] | GI50 [6] | GI50 [7] | GI50 [8] | GI50 [9] | GI50 [10] | GI50 [11] | GI50 [12] | GI50 [13] | GI50 [14] | GI50 [15] | GI50 [16] | GI50 [17] | GI50 [18] | GI50 [19] | GI50 [20]
NC(CCOCCP(=O)(O)CCC1C=CC=CC1)C(=O)O (centres undefined) | > 100 µM (inactive) | > 100 µM (inactive) | > 100 µM (inactive) | > 100 µM | > 100 µM (inactive) | > 100 µM (inactive) | > 100 µM (inactive) | 73.5 µM (inactive) | > 100 µM (inactive) | > 100 µM (inactive) | > 100 µM (inactive) | > 100 µM (inactive) | > 100 µM (inactive) | > 100 µM (inactive) | > 100 µM (inactive) | > 100 µM (inactive) | > 100 µM (inactive) | > 100 µM (inactive) | > 100 µM (inactive) | > 100 µM (inactive)
CC1C(NNC(N)=O)Oc2cc3c(cc2C1c1ccccc1O)OCO3 (centres undefined) | 29.5 µM (inactive) | 15.6 µM (inactive) | 66.8 µM (inactive) | 33.6 µM | 14.9 µM (inactive) | 34 µM (inactive) | 22.2 µM (inactive) | 46.7 µM (inactive) | 89.9 µM (inactive) | 33.1 µM (inactive) | > 100 µM (inactive) | 39.6 µM (inactive) | 27 µM (inactive) | 24.2 µM (inactive) | 31 µM (inactive) | 27.4 µM (inactive) | 48.3 µM (inactive) | 16.6 µM (inactive) | 38.7 µM (inactive) | 52.5 µM (inactive)
O=C1C(=O)c2cc([N+](=O)[O-])ccc2-c2ccc([N+](=O)[O-])cc21 | 0.733 µM (active) | 0.289 µM (active) | 2.04 µM (inactive) | 0.785 µM | 0.246 µM (active) | 7.46 µM (inactive) | 0.395 µM (active) | 0.346 µM (active) | 0.682 µM (active) | 0.29 µM (active) | 3.27 µM (inactive) | 0.484 µM (active) | 1.71 µM (inactive) | 0.741 µM (active) | 1.99 µM (inactive) | 1.92 µM (inactive) | 0.927 µM (active) | 0.401 µM (active) | 0.773 µM (active) | 1.51 µM (inactive)
Cc1c2[nH]c3ccc(Br)cc3c2c(C)c2nccc(O)c12 | 13.8 µM (inactive) | 7.35 µM (inactive) | 16.4 µM (inactive) | 15.1 µM | 12.1 µM (inactive) | 14.4 µM (inactive) | 17 µM (inactive) | 15.5 µM (inactive) | 16 µM (inactive) | 14.6 µM (inactive) | 14.5 µM (inactive) | 14.8 µM (inactive) | 14.5 µM (inactive) | 15.6 µM (inactive) | 16.9 µM (inactive) | 22.3 µM (inactive) | 13.2 µM (inactive) | 11.7 µM (inactive) | – | 11.1 µM (inactive)
Cc1ccc(S(=O)(=O)NNC2Oc3cc4c(cc3C(c3ccccc3O)C2C)OCO4)cc1 (centres undefined) | 11.5 µM (inactive) | 10.2 µM (inactive) | 10.7 µM (inactive) | 4.9 µM | 18.4 µM (inactive) | 14.3 µM (inactive) | 11.1 µM (inactive) | 15.2 µM (inactive) | 15.7 µM (inactive) | 11.4 µM (inactive) | 16.1 µM (inactive) | 14 µM (inactive) | 11.6 µM (inactive) | 16.9 µM (inactive) | 15.6 µM (inactive) | 14.5 µM (inactive) | 15.3 µM (inactive) | 13.7 µM (inactive) | 10.3 µM (inactive) | 11 µM (inactive)
CC(=O)Nc1ccc(C2=N/C(=C\c3ccc(Cl)c(Cl)c3)C(=O)O2)cc1 | > 100 µM (inactive) | > 100 µM (inactive) | > 100 µM (inactive) | > 100 µM | > 100 µM (inactive) | > 100 µM (inactive) | > 100 µM (inactive) | 30 µM (inactive) | > 100 µM (inactive) | > 100 µM (inactive) | > 100 µM (inactive) | > 100 µM (inactive) | > 100 µM (inactive) | > 100 µM (inactive) | > 100 µM (inactive) | > 100 µM (inactive) | > 100 µM (inactive) | > 100 µM (inactive) | > 100 µM (inactive) | > 100 µM (inactive)
O=C1C(=CNC(=S)c2ccccc2)C(=O)c2ccccc21 | 71.4 µM (inactive) | 25 µM (inactive) | 60.8 µM (inactive) | 32.1 µM | 4.28 µM (inactive) | > 100 µM (inactive) | 30.1 µM (inactive) | 43.1 µM (inactive) | 51.5 µM (inactive) | 76 µM (inactive) | > 100 µM (inactive) | 71.8 µM (inactive) | 91 µM (inactive) | 58.5 µM (inactive) | > 100 µM (inactive) | 58.9 µM (inactive) | 46.7 µM (inactive) | 55.8 µM (inactive) | 64.9 µM (inactive) | 25.8 µM (inactive)
COc1cc2c(c(OC)c1OC)-c1[nH]ncc1CC2 | 60.7 µM (inactive) | > 100 µM (inactive) | > 100 µM (inactive) | > 100 µM | > 100 µM (inactive) | > 100 µM (inactive) | > 100 µM (inactive) | > 100 µM (inactive) | > 100 µM (inactive) | > 100 µM (inactive) | > 100 µM (inactive) | > 100 µM (inactive) | > 100 µM (inactive) | > 100 µM (inactive) | > 100 µM (inactive) | > 100 µM (inactive) | > 100 µM (inactive) | > 100 µM (inactive) | > 100 µM (inactive) | > 100 µM (inactive)
Cn1c(=O)ccc2c(=O)c3ccccc3oc21 | > 100 µM (inactive) | > 100 µM (inactive) | > 100 µM (inactive) | > 100 µM | > 100 µM (inactive) | > 100 µM (inactive) | > 100 µM (inactive) | > 100 µM (inactive) | > 100 µM (inactive) | > 100 µM (inactive) | > 100 µM (inactive) | > 100 µM (inactive) | > 100 µM (inactive) | > 100 µM (inactive) | > 100 µM (inactive) | > 100 µM (inactive) | > 100 µM (inactive) | > 100 µM (inactive) | > 100 µM (inactive) | 4.68 µM (inactive)
NC1C2C=CC(C2)C1C(=O)O (centres undefined) | > 100 µM (inactive) | > 100 µM (inactive) | > 100 µM (inactive) | > 100 µM | > 100 µM (inactive) | > 100 µM (inactive) | > 100 µM (inactive) | > 100 µM (inactive) | > 100 µM (inactive) | > 100 µM (inactive) | > 100 µM (inactive) | > 100 µM (inactive) | > 100 µM (inactive) | 9.08 µM (inactive) | > 100 µM (inactive) | > 100 µM (inactive) | > 100 µM (inactive) | > 100 µM (inactive) | > 100 µM (inactive) | > 100 µM (inactive)
COc1cc2c(cc1Oc1c(Oc3c(O)c(OC)cc4c3C(CC(C)C)N(C)CC4)c(OC)cc3c1C(CC(C)C)N(C)CC3)C(CC(C)C)N(C)CC2 (centres undefined) | 0.575 µM (active) | 0.8 µM (active) | 0.528 µM (active) | 1.81 µM | 3.03 µM (inactive) | 0.547 µM (active) | 1.02 µM (active) | 0.931 µM (active) | 0.787 µM (active) | 1.12 µM (inactive) | 5.11 µM (inactive) | 1.51 µM (inactive) | 0.904 µM (active) | 0.376 µM (active) | 0.897 µM (active) | 0.375 µM (active) | 0.577 µM (active) | 0.879 µM (active) | 0.492 µM (active) | 3.95 µM (inactive)
